Measurements: publication PMC13385394, “Cryo-EM Structure of the TRPC1/5 Heteromer Enables Design of Antidepressant and Anxiolytic Drug with Reduced Side Effects” (Nature Communications, 2026)
Where “and” joins values, the source holds several entries; their conditions need not be identical. Equal values may be shown once.

What was measured:
[1] = biological target: T1, TRPC5 homomers (Homo sapiens, UniProt Q9UL62); assay: Whole-cell patch-clamp, inhibition of EA-activated TRPC5 homomers; assay type: cell-based
T1 construct: full length hTRPC5 (TRPC5 wild type (WT)); expressed in transfected cells; host or cells: HEK293T
T1 sequence (Q9UL62 1-973): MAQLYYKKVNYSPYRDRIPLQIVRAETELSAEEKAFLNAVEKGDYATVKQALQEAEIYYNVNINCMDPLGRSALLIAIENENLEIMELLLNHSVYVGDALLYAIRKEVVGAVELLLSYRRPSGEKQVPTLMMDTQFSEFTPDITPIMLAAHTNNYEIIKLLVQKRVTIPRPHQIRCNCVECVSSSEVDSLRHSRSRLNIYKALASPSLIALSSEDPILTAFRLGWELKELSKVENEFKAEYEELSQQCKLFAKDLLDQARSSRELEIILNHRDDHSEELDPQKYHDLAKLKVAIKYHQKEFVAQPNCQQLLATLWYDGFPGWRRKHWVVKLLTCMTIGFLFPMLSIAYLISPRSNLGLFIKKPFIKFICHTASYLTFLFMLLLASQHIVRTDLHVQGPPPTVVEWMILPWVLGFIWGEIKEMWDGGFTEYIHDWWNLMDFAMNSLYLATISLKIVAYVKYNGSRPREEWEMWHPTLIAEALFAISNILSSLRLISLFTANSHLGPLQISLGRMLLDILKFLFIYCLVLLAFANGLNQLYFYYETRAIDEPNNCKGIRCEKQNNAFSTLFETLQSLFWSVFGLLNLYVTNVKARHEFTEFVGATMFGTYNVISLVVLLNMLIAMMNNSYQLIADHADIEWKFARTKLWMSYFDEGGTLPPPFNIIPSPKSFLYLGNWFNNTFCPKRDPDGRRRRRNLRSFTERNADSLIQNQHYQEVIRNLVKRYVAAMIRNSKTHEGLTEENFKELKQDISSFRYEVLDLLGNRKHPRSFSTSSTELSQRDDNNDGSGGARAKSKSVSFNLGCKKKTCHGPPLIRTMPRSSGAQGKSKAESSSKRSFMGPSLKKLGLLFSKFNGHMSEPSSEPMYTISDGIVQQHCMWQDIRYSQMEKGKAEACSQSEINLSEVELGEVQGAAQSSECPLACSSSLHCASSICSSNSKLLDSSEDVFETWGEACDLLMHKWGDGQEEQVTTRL

[2] = biological target: T2, TRPC1/5 heteromers (Homo sapiens, UniProt P48995+Q9UL62); assay: Whole-cell patch-clamp, inhibition of EA-activated TRPC1/5 heteromers; assay type: cell-based
T2 construct: wild type plasmids full-length hTRPC1 (WT) and full-length hTRPC5 (WT); expressed in transfected cells; host or cells: HEK293T
T2 sequence (P48995 whole entry, one chain of several): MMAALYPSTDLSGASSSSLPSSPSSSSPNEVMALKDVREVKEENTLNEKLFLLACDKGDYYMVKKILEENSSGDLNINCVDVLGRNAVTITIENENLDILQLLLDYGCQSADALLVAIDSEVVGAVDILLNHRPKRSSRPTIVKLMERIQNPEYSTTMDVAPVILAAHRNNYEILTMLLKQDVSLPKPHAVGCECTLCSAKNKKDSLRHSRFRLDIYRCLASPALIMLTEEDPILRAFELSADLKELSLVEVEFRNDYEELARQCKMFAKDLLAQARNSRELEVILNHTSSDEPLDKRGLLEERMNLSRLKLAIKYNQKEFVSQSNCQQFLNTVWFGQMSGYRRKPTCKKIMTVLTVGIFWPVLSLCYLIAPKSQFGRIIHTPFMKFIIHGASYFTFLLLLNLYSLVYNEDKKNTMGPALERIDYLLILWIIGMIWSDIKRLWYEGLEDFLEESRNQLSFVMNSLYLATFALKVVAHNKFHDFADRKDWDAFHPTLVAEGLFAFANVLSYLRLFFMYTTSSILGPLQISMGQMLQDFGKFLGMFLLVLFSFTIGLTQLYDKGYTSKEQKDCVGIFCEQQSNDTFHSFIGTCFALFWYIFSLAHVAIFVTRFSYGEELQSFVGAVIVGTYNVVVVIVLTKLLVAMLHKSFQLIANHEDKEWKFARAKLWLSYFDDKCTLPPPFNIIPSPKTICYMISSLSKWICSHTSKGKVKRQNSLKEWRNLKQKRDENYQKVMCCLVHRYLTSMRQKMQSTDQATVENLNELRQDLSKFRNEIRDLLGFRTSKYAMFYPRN
From the text: The full-length hTRPC5 or truncated mTRPC5, and the full-length hTRPC1 constructs was respectively co-transfected in a plasmid ration 1:3 (w/w) into HEK293T cells (from the ATCC). As previously described, a mCherry was inserted into TRPC5 constructs and a GFP was inserted at the C terminus of TRPC1. Therefore, Cells with red and green fluorescence were selected for whole-cell patch recordings (HEKA EPC10 amplifier, […] software (https://www.heka.com/downloads/downloads_main.html#down_patchmaster)). A 1-s ramp protocol from −100 to +100 mV was applied at a frequency of 0.2 Hz. Signals were sampled at 50 kHz and filtered at 2.9 kHz. The pipette solution contained 130 mM CsCl, 1 mM MgCl2, 5.7 mM CaCl2, 10 mM EGTA, and 10 mM Hepes (calculated free Ca^2+, 200 nM), and the pH was titrated to 7.2 using CsOH[40]. The standard bath solution contained 140 mM NaCl, 5 mM KCl, 1 mM MgCl2, 2 mM CaCl2, 10 mM Hepes, and 10 mM D-glucose, and the pH was adjusted to 7.4 with NaOH (1 M). The recording chamber (150 μL) was perfused at a rate of ~2 mL/min. All recordings were performed at room temperature.

[3] = biological target: T3, hTRPC5 (Homo sapiens, UniProt Q9UL62); assay: Calcium flux assay (Calcium 5 kit, EA 100 nM), hTRPC5 in HEK293T cells; assay type: cell-based; details: calcium flux screening, 10 μM
T3 construct: Full-length, non-tagged hTRPC1 and hTRPC5 constructs are used for calcium flux assays; expressed in transfected cells; host or cells: HEK293T
T3 sequence (Q9UL62 1-973): T1 sequence (Q9UL62 1-973)
Method: Five minutes before measurement, molecules are added to each well at a final concentration of 10 µM under light-sensitive conditions.

[4] = biological target: T4, TRPC4 homomer (Homo sapiens, UniProt Q9UBN4); assay: Whole-cell patch-clamp, inhibition of TRPC4 homomer; assay type: cell-based; details: read-out: IC50, TRPC4 homomers
T4 construct: expressed in transfected cells
T4 sequence (Q9UBN4 1-977): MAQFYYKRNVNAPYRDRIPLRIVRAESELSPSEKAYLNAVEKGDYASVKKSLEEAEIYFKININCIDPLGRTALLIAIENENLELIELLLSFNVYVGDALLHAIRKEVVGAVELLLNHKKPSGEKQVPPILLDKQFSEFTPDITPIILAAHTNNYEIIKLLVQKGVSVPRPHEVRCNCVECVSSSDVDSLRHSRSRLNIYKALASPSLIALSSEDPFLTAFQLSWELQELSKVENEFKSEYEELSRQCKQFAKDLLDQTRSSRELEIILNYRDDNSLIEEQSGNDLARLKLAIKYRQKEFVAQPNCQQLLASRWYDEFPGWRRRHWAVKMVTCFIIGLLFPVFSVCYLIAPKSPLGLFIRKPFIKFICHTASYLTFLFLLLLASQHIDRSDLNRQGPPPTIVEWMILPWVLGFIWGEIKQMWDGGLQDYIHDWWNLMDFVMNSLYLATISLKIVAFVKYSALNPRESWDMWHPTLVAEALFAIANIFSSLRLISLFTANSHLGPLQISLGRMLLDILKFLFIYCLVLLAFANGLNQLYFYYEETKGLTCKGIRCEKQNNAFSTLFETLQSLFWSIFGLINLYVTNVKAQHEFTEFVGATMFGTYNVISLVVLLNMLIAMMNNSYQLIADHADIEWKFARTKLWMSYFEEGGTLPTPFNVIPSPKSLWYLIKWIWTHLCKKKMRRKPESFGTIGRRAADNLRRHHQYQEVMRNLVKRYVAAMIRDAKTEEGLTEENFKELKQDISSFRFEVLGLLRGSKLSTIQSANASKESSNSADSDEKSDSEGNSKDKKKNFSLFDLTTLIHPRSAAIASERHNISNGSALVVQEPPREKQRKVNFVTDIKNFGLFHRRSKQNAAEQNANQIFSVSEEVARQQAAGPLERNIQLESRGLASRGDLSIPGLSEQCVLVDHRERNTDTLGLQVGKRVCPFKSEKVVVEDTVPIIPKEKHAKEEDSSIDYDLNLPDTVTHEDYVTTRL

[5] = test system: mCPP-induced anxiety; assay: Marble-burying test (MBT), mCPP-induced anxiety model; details: mCPP mice; single dose
Method: Seventy male 7–8-week-old C57BL/6 J mice from Jinan Pengyue Laboratory Animal Breeding Co., Ltd. (Jinan, China) were randomly and equally divided into seven groups for the experiment. After a 7-day acclimatization period, interventions were carried out for the indicated days. The Elevated Plus Maze (EPM) test was conducted on day 8, the Marble-Burying (MB) test on day 11, and the Open Field (OF) test on day 14. Mice were brought to the experimental site 2 h before the start of the experiment for acclimatization. […] Anxiety models were induced 30 min before the experiment using the following protocols: control group (NS, 10 mL/kg, i.p.), other groups (mCPP, 2 mg/kg, i.p.)[56].
Prior to the test, the animals were acclimated to the testing environment for 60 min. The test lasted for 30 min, and after each round, the bedding was replaced and the cage was disinfected. The number of marbles buried was recorded, with burying more than 50% of the marbles considered as the criteria for burying.

CN(C)CCCCn1c(=O)c2c(nc(Oc3cccc(Cl)c3)n2Cc2ccc(Cl)cc2)n(C)c1=O [H08]
concentration at which inhibition of TRPC5 homomers appears [1]: > 5 µM
HillSlope, TRPC5 ([1]; whole-cell patch-clamp): 1.990
IC50 ([1]; whole-cell patch-clamp): 8.5 µM
HillSlope, TRPC5 ([1]; whole-cell patch-clamp, listed as JD03-02): > 1
Hill coefficient, TRPC1/C5 heteromer ([2]; combined fitting with additional 0.01 nM and 0.001 nM points (rebuttal)): approximately 0.33
IC50 ([2]; whole-cell patch-clamp, read-out: IC50, TRPC1/C5): 0.000239 µM and 0.0002 µM
inhibitory activity toward TRPC5 homomers (in words) [3]: minimal effect
IC50 [4]: 2.38 µM
MBT number of marbles buried [5]: reducing the number of marbles buried
